Experimental findings from article PMC7604503, “Cyclic peptides can engage a single binding pocket through highly divergent modes” (Proceedings of the National Academy of Sciences of the …, 2020) are described below.

Experiment in all cases: BROMOscan competition binding assay (BromoMAX, Eurofins DiscoverX)
One test concerns the target T1, BAZ2B (Homo sapiens, UniProt Q9UIF8).
T1 construct: purchased Eurofins DiscoverX (BROMOscan, BromoMAX)
Conditions: for Percent Control BAZ2B: compound concentration 1000 nM, lower percentage control = stronger affinity.

A further test has as its target T2, BRD3(2) (Homo sapiens, UniProt Q15059).
T2 construct: BRD3(2); purchased Eurofins DiscoverX (BROMOscan, BromoMAX)
Conditions: for Percent Control BRD3(2): compound concentration 1000 nM, lower percentage control = stronger affinity.

In the next test the target is T3, BRD9 (Homo sapiens, UniProt Q9H8M2).
T3 construct: purchased Eurofins DiscoverX (BROMOscan, BromoMAX)
T3 sequence (Q9H8M2 1-597): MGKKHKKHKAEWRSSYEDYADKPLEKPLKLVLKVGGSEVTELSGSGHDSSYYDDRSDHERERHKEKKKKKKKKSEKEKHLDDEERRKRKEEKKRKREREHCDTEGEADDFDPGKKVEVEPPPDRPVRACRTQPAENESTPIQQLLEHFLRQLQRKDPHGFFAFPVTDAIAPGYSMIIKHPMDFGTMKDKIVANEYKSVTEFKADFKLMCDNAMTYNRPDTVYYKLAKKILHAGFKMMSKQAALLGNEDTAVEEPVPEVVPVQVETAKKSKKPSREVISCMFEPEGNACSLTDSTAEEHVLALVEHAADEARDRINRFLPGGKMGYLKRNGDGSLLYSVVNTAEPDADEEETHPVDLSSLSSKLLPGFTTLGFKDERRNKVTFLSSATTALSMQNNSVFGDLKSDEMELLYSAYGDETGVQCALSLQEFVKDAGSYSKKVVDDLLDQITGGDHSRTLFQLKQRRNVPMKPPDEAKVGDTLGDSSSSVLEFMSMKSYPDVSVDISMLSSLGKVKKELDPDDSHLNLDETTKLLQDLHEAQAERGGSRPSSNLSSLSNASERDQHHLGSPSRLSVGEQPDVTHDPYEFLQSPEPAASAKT
Particulars: for Percent Control BRD9: compound concentration 1000 nM, lower percentage control = stronger affinity.

In another test the target is T4, BRDT(1) (Homo sapiens, UniProt Q58F21).
T4 construct: BRDT(1); purchased Eurofins DiscoverX (BROMOscan, BromoMAX)
Particulars: for Percent Control BRDT(1): compound concentration 1000 nM, lower percentage control = stronger affinity.

In a further test the target is T5, BRDT(2) (Homo sapiens, UniProt Q58F21).
T5 construct: BRDT(2); purchased Eurofins DiscoverX (BROMOscan, BromoMAX)
Conditions: for Percent Control BRDT(2): compound concentration 1000 nM, lower percentage control = stronger affinity.

The next test has as its target T6, BRPF1 (Homo sapiens, UniProt P55201).
T6 construct: purchased Eurofins DiscoverX (BROMOscan, BromoMAX)
T6 sequence (P55201 1-1214): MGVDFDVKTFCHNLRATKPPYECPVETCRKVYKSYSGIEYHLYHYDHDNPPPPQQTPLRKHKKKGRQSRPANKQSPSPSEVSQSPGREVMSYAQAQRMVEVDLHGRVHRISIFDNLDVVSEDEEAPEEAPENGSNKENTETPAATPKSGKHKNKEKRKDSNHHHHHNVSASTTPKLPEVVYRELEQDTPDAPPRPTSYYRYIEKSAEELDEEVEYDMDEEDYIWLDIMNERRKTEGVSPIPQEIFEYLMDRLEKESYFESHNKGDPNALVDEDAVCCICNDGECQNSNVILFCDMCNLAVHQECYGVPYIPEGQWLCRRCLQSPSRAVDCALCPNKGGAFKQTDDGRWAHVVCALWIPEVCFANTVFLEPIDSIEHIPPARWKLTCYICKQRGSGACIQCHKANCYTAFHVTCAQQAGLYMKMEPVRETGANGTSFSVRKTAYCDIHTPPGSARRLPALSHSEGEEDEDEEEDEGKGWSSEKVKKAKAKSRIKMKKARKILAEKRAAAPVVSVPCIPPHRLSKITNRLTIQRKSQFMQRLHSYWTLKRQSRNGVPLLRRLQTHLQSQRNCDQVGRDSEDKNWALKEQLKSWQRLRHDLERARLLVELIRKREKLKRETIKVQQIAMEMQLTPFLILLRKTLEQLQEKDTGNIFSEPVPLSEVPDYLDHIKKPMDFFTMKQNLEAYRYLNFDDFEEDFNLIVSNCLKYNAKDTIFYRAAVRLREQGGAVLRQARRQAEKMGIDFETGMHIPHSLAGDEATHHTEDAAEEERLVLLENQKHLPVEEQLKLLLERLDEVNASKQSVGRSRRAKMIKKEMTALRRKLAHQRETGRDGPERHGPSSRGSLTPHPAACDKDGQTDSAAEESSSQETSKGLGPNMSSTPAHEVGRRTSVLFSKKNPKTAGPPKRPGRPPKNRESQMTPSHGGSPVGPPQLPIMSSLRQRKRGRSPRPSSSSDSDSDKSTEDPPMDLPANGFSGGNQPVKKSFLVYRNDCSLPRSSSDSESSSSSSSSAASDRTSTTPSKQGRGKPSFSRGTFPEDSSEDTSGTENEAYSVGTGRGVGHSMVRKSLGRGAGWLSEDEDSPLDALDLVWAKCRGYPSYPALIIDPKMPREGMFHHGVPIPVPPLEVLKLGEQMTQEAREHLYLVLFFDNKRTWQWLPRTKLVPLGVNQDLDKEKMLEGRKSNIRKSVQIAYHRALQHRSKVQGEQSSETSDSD
Particulars: for Percent Control BRPF1: compound concentration 1000 nM, lower percentage control = stronger affinity.

The target in the next test is T7, CECR2 (Homo sapiens, UniProt Q9BXF3).
T7 construct: purchased Eurofins DiscoverX (BROMOscan, BromoMAX)
Conditions: for Percent Control CECR2: compound concentration 1000 nM, lower percentage control = stronger affinity.

For the next test, the target named is T8, PBRM1(2) (Homo sapiens, UniProt Q86U86).
T8 construct: PBRM1(2); purchased Eurofins DiscoverX (BROMOscan, BromoMAX)
Particulars: for Percent Control PBRM1(2): compound concentration 1000 nM, lower percentage control = stronger affinity.

The target in another test is T9, PBRM1(5) (Homo sapiens, UniProt Q86U86).
T9 construct: PBRM1(5); purchased Eurofins DiscoverX (BROMOscan, BromoMAX)
Conditions: for Percent Control PBRM1(5): compound concentration 1000 nM, lower percentage control = stronger affinity.

The next test concerns the target T10, PCAF (Homo sapiens, UniProt Q92831).
T10 construct: purchased Eurofins DiscoverX (BROMOscan, BromoMAX)
Particulars: for Percent Control PCAF: compound concentration 1000 nM, lower percentage control = stronger affinity.

The target of the next test is T11, SMARCA2 (Homo sapiens, UniProt P51531).
T11 construct: purchased Eurofins DiscoverX (BROMOscan, BromoMAX)
Conditions: for Percent Control SMARCA2: compound concentration 1000 nM, lower percentage control = stronger affinity.

The next test concerns the target T12, TRIM24(PHD,Bromo.) (Homo sapiens, UniProt O15164).
T12 construct: purchased Eurofins DiscoverX (BROMOscan, BromoMAX)
T12 sequence (O15164 824-1006 limits assumed): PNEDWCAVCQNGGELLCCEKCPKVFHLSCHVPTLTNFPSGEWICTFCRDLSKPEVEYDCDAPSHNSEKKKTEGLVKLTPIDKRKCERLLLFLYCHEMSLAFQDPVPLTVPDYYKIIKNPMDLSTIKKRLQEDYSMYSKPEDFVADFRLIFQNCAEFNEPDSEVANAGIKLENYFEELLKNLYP
Conditions: for Percent Control TRIM24(PHD,Bromo.): compound concentration 1000 nM, lower percentage control = stronger affinity.

Where a SMILES comes first, the peptide text is derived from it. Bridges are numbered along the chain shown (N, C = ends).

With `CC[C@H](C)[C@@H]1NC(=O)[C@H]([C@@H](C)O)NC(=O)[C@H](CCCCN)NC(=O)[C@H](Cc2c[nH]c3ccccc23)NC(=O)CSC[C@@H](C(N)=O)NC(=O)[C@H](CCC(N)=O)NC(=O)[C@H](CCCCNC(C)=O)NC(=O)[C@H]([C@@H](C)O)NC(=O)[C@H](CCCNC(=N)N)NC(=O)[C@H](Cc2c[nH]c3ccccc23)NC(=O)[C@H]([C@@H](C)O)NC(=O)[C@H](CCCCNC(C)=O)NC(=O)CNC(=O)[C@H](CCCCNC(C)=O)NC1=O` [3.1B] ({CH2CO}-WKTIK(Ac)GK(Ac)TWRTK(Ac)QC-NH2; thioether N-14), the “Percent Control BAZ2B” value at BAZ2B turned out to be 100%. Moreover, the “Percent Control BRD3(2)” value at BRD3(2) is reported as 100%. Also, the “Percent Control BRD9” value at BRD9 is recorded as 100%. Further, at BRDT(1), the “Percent Control BRDT(1)” value worked out at 0%. Further, the “Percent Control BRDT(2)” value on BRDT(2) was found to be 100%. Moreover, the “Percent Control BRPF1” value at BRPF1 is 100%. Also, the “Percent Control CECR2” value at CECR2 came out at 100%. Further, the “Percent Control PBRM1(2)” value at PBRM1(2) was found to be 100%. Further, at PBRM1(5), the “Percent Control PBRM1(5)” value came to 100%. The “Percent Control PCAF” value at PCAF came to 94%. At SMARCA2, the “Percent Control SMARCA2” value worked out at 34%. The “Percent Control TRIM24(PHD,Bromo.)” value on TRIM24(PHD,Bromo.) is given as 91%.
Take `CC[C@H](C)[C@@H]1NC(=O)[C@H](Cc2c[nH]c3ccccc23)NC(=O)[C@H](Cc2c[nH]c3ccccc23)NC(=O)CSC[C@@H](C(N)=O)NC(=O)CNC(=O)[C@H](CCCCNC(C)=O)NC(=O)[C@H](CCCCN)NC(=O)[C@H](C(C)C)NC(=O)[C@H](CCCCNC(C)=O)NC(=O)[C@@H]2CCCN2C(=O)[C@H]([C@@H](C)CC)NC1=O` [3.1C] ({CH2CO}-WWIIPK(Ac)VKK(Ac)GC-NH2; thioether N-11): the “Percent Control BAZ2B” value at BAZ2B stood at 100%. Also, at BRD3(2), the “Percent Control BRD3(2)” value was 13%. For the same compound, the “Percent Control BRD9” value at BRD9 is reported as 95%. Besides, the “Percent Control BRDT(1)” value on BRDT(1) was determined as 0%. For the same compound, at BRDT(2), the “Percent Control BRDT(2)” value is listed as 4.9%. The “Percent Control BRPF1” value at BRPF1 is 100%. The “Percent Control CECR2” value on CECR2 was determined as 99%. In addition, at PBRM1(2), the “Percent Control PBRM1(2)” value is reported as 100%. Moreover, the “Percent Control PBRM1(5)” value on PBRM1(5) stood at 89%. The “Percent Control PCAF” value on PCAF is given as 96%. For the same compound, on SMARCA2, the “Percent Control SMARCA2” value turned out to be 35%. For the same compound, the “Percent Control TRIM24(PHD,Bromo.)” value at TRIM24(PHD,Bromo.) turned out to be 94%.
Take `CC[C@H](C)[C@H](NC(=O)[C@H](CCCNC(=N)N)NC(=O)[C@H](CCCCNC(C)=O)NC(=O)[C@H](CCCNC(=N)N)NC(=O)[C@H](CC(C)C)NC(=O)[C@@H]1CSCC(=O)N[C@@H](Cc2c[nH]c3ccccc23)C(=O)N[C@@H](CCCCNC(C)=O)C(=O)NCC(=O)N[C@@H](Cc2ccc(O)cc2)C(=O)N[C@@H](CC(C)C)C(=O)N1)C(=O)N[C@@H](CCC(N)=O)C(=O)N[C@@H](CCCNC(=N)N)C(=O)N[C@H](C(=O)N[C@@H](Cc1ccc(O)cc1)C(=O)N[C@@H](CC(N)=O)C(N)=O)[C@@H](C)O` [4.2C] ({CH2CO}-WK(Ac)GYLCLRK(Ac)RIQRTYN-NH2; thioether N-6): the remaining binding at 1 µM at BAZ2B (read-out: Percent Control BAZ2B) was 99%; on BRD3(2) (read-out: Percent Control BRD3(2)), 96%; on BRDT(1) (read-out: Percent Control BRDT(1)), 85%; at BRPF1 (read-out: Percent Control BRPF1), 100%; at PBRM1(2) (read-out: Percent Control PBRM1(2)) it was 100%; at PBRM1(5) (read-out: Percent Control PBRM1(5)) it was 90%. Moreover, the percent of control binding at 1 µM on BRD9 stood at 89%; at BRDT(2) it was 92%; at CECR2, 99%; on PCAF, 100%; at SMARCA2 it was 36%; at TRIM24(PHD,Bromo.) it was 98%.
